# “And” between values parts separate entries of the source, which are not always exact repeats. Identical values can stand only once. Marks after values point to notes of the source that are not given here.
# What was measured:
# [1] = test system: MOLM14, Kasumi-1, KOPN8 and RCH-ACV leukemia cell lines; test: Kinase inhibitor drug combination screen, summary over the four leukemia cell lines; details: for No. Cell Lines: cell lines synergistically inhibited (>10% over Bliss) by drug 1 combined with AS and/or ART-838
# Excerpt: (§1) Hits were ranked by the observed inhibition over the Bliss independence prediction.
# (§2) Combinations with positive values for this Bliss difference were considered synergistic, values near zero, additive, and negative values, antagonistic.
# MOLM14 = test: Kinase inhibitor drug combination screen (MTS, Bliss-independence analysis)
# Excerpt: as §1, §2
# KOPN8 = test: as above
# Excerpt: as §1, §2
# [2] = MOLM14, Drug 2 = ART-838 at approximate IC50, 48 h
# [3] = MOLM14, Drug 2 = AS at approximate IC50, 48 h
# [4] = KOPN8, Drug 2 = ART-838 at approximate IC50, 48 h
# [5] = KOPN8, Drug 2 = AS at approximate IC50, 48 h
Compound,No. Cell Lines [1],fractional inhibition over Bliss prediction (MOLM14; [2]),fractional inhibition over Bliss prediction (MOLM14; [3]),fractional inhibition over Bliss prediction (KOPN8; [4]),fractional inhibition over Bliss prediction (KOPN8; [5]),synergy with AS or ART-838 ([1]; screens in four human leukemia cell lines)
CC(C)C[C@H](NC(=O)[C@H](Cc1ccccc1)NC(=O)c1cnccn1)B(O)O [Bortezomib],2/4,,,,,
C#Cc1cccc(Nc2ncnc3cc(OCCOC)c(OCCOC)cc23)c1 [Erlotinib],2/4,,,,,
COc1ccc(COc2ccc(Cc3cnc(N)nc3N)cc2OC)cc1 [GW-2580],2/4,"MOLM14 (0.19),",0.25 and 0.15,KOPN8 (0.19),KOPN8 (0.15),
O=S(=O)(NCCNC/C=C/c1ccc(Br)cc1)c1cccc2cnccc12 [H-89],2/4,"MOLM14 (0.13),",MOLM14 (0.21),KOPN8 (0.10),,
Cc1ccc(NC(=O)c2ccc(CN3CCN(C)CC3)cc2)cc1Nc1nccc(-c2cccnc2)n1 [Imatinib],2/4,,,,,
Cn1cc(-c2ccc3nnc(C(F)(F)c4ccc5ncccc5c4)n3n2)cn1 [JNJ-38877605],2/4,"MOLM14 (0.17),","MOLM14 (0.27),",KOPN8 (0.19),KOPN8 (0.12),
CS(=O)(=O)CCNCc1ccc(-c2ccc3ncnc(Nc4ccc(OCc5cccc(F)c5)c(Cl)c4)c3c2)o1 [Lapatinib],2/4**,,,,,
Cc1ccc(F)c(NC(=O)Nc2ccc(-c3cccc4[nH]nc(N)c34)cc2)c1 [Linifanib],,,,0.19,0.20,
CC1(C)CNc2cc(NC(=O)c3cccnc3NCc3ccncc3)ccc21 [Motesanib],,,,0.15,0.11,
Nc1ncnc2c1c(-c1cccc(OCc3ccccc3)c1)cn2C1CC(CN2CCCC2)C1 (centres unmarked) [NVP-ADW742],2/4,"MOLM14 (0.17),",MOLM14 (0.20),,,
CCCCCCCCCCCCc1ccc(S(=O)(=O)Nc2nncs2)cc1 [PHT-427],,0.20,0.26,,,
Cc1ccc(Nc2nccc(N(C)c3ccc4c(C)n(C)nc4c3)n2)cc1S(N)(=O)=O [Pazopanib],3/4,,,,,
CS(=O)(=O)N1CCN(Cc2cc3nc(-c4cccc5[nH]ncc45)nc(N4CCOCC4)c3s2)CC1 [Pictilisib],,,,0.14,0.12,
NC(=O)c1ccc(-c2nc(-c3ccc4c(c3)OCO4)c(-c3ccccn3)[nH]2)cc1 [SB-431542],,0.11,0.16,,,
CN1CCN(CCOc2cc(OC3CCOCC3)c3c(Nc4c(Cl)ccc5c4OCO5)ncnc3c2)CC1 [Saracatinib],,0.21,0.33,,,
CC(=O)Nc1cccc(-n2c(=O)n(C3CC3)c(=O)c3c(Nc4ccc(I)cc4F)n(C)c(=O)c(C)c32)c1 [Trametinib],,,,0.20,0.20,
Clc1ccc(Nc2nnc(Cc3ccncc3)c3ccccc23)cc1 [Vatalanib],,,,0.12,0.15,
ABT-263,,,,,,Particularly strong synergy
JAK Inhibitor I,,0.15,0.44,,,

# — patent US9918972B2, “Treatment of leukemia with artemisinin derivatives and combinations with other antineoplastic agents” (UNIVERSITY OF MARYLAND, BALTIMORE, priority 2014, dated 2018)
